Reference: patent publication US20220064195A1, “SYNTHETIC I2 IMIDAZOLINE RECEPTOR LIGANDS FOR PREVENTION OR TREATMENT OF HUMAN BRAIN DISORDERS” (Universitat de Barcelona, priority 2018, published 2022)
“And” between values parts separate entries of the source, which are not always exact repeats. Equal entries are not always repeated. Where two headings read alike, the source gives them in different places.

What was measured:
[1] = for CNS Prediction: predictive penetration in the CNS from PAMPA-BBB Pe
Method: (§1) To evaluate the brain penetration of the different compounds, a parallel artificial membrane permeation assay for blood-brain barrier was used, following the method described by Di et al. (cf. Table 2). The in vitro permeability (Pe) of fourteen commercial drugs through lipid extract of porcine brain membrane together with the test compounds were determined. Commercial drugs and assayed compounds were tested using a mixture of PBS:EtOH (70:30).

[2] = in vitro; conditions: pig, PAMPA
Method: as §1

[3] = target: I2-IR; test: Competition binding against the selective I2-IR radioligand [3H]-2-BFI in membranes from post-mortem human frontal cortex; conditions: for [^3H]-2-BFI I2 binding affinity (pKi): membranes from post-mortem human frontal cortex, radioligand [3H]-2-BFI

SMILES	CNS Prediction [1]	Papp [2] [nm/s]	[^3H]-2-BFI I2 binding affinity (pKi) [3]	Selectivity I2/α2 ([3]; antilogarithm of the difference between pKi for I2-IR and pKi for α2-AR)	Selectivity I2/α2 [3]	Permeability (Pe) Experimental value ± SD (n = 3) ([1]; PAMPA-BBB, PBS:EtOH (70:30), three experiments in triplicate)
CCOP(=O)(OCC)[C@]1(c2ccccc2)N=C[C@H]2C(=O)N(C3CCCCC3)C(=O)[C@H]21 (racemic) [Compound I-07, Diethyl (1RS,3aSR,6aSR)-5-cyclohexyl-4,6-dioxo-1-phenyl-1,3a,4,5,6,6a-hexahydropyrrolo[3,4-c]pyrrole-1-phosphonate]	CNS+ (compounds of high BBB permeation (CNS+): Pe (10^−6 cm s^−1)>5,179)	259 ± 6	9.74 ± 0.29	–	–	–
CCOP(=O)(OCC)[C@]1(c2ccccc2)N=C[C@H]2C(=O)N(c3ccccc3)C(=O)[C@H]21 (racemic) [Compound I-16, Diethyl (1RS,3aSR,6aSR)-4,6-dioxo-1,5-diphenyl-1,3a,4,5,6,6a-hexahydropyrrolo[3,4-c]pyrrole-1-phosphonate]	CNS+ (compounds of high BBB permeation (CNS+): Pe (10^−6 cm s^−1)>5,179)	78 ± 6	10.28 ± 0.37	–	–	–
CCOP(=O)(OCC)[C@]1(c2ccccc2)N=C[C@H]2C(=O)N(c3ccc(OC)cc3)C(=O)[C@H]21 (racemic) [Compound I-22, Diethyl (1RS,3aSR,6aSR)-5-(4-methoxyphenyl)-4,6-dioxo-1-phenyl-1,3a,4,5,6,6a-hexahydropyrrolo[3,4-c]pyrrole-1-phosphonate]	CNS+/− (compounds of uncertain BBB permeation (CNS+/−): 5,179>Pe (10^−6 cm s^−1)>2,083)	39 ± 1.5	6.65 ± 1.27	–	–	–
CCOP(=O)(OCC)[C@]1(C)N=C[C@H]2C(=O)N(C)C(=O)[C@H]21 (racemic) [Compound I-25, Diethyl (1RS,3aRS,6aRS)-1,5-dimethyl-4,6-dioxo-1,3a,4,5,6,6a-hexahydropyrrolo[3,4-c]pyrrole-1-phosphonate]	CNS+/− (compounds of uncertain BBB permeation (CNS+/−): 5,179>Pe (10^−6 cm s^−1)>2,083)	46 ± 7	8.57 ± 0.39	19	–	–
CCOP(=O)(OCC)[C@]1(c2ccccc2)N=C[C@H]2C(=O)N(c3ccc(-c4ccccc4)cc3)C(=O)[C@H]21 (racemic) [Compound I-32, Diethyl (1RS,3aSR,6aSR)-5-(1,1′-biphenyl)-4-yl-4,6-dioxo-1-phenyl-1,3a,4,5,6,6a-hexahydropyrrolo[3,4-c]pyrrole-1-phosphonate]	CNS+ (compounds of high BBB permeation (CNS+): Pe (10^−6 cm s^−1)>5,179)	82 ± 3	7.90 ± 0.46	–	–	–
CCOP(=O)(OCC)[C@]1(c2ccccc2)N=C[C@H]2C(=O)N(CCc3ccccc3)C(=O)[C@H]21 (racemic) [Compound I-33, Diethyl (1RS,3aSR,6aSR)-4,6-dioxo-5-phenethyl-1-phenyl-1,3a,4,5,6,6a-hexahydropyrrolo[3,4-c]pyrrole-1-phosphonate]	CNS+ (compounds of high BBB permeation (CNS+): Pe (10^−6 cm s^−1)>5,179)	62 ± 3	5.85 ± 0.18	–	182	–
CCOP(=O)(OCC)[C@]1(c2ccccc2)N=C[C@H]2C(=O)N(CCc3ccc(F)cc3)C(=O)[C@H]21 (racemic) [Compound I-36, Diethyl (1RS,3aSR,6aSR)-5-(4-fluorophenethyl)-4,6-dioxo-1-phenyl-1,3a,4,5,6,6a-hexahydropyrrolo[3,4-c]pyrrole-1-phosphonate]	CNS+ (compounds of high BBB permeation (CNS+): Pe (10^−6 cm s^−1)>5,179)	72 ± 4.5	–	–	–	–
CCOP(=O)(OCC)[C@]1(c2ccccc2)N=C[C@H]2C(=O)N(c3ccc(F)cc3)C(=O)[C@H]21 (racemic) [Compound I-37, Diethyl (1RS,3aSR,6aSR)-5-(4-fluorophenyl)-4,6-dioxo-1-phenyl-1,3a,4,5,6,6a-hexahydropyrrolo[3,4-c]pyrrole-1-phosphonate]	CNS+/− (compounds of uncertain BBB permeation (CNS+/−): 5,179>Pe (10^−6 cm s^−1)>2,083)	32 ± 2	–	–	–	–
CCOP(=O)(OCC)[C@]1(c2ccccc2)N=C[C@H]2C(=O)N(c3ccc(C(F)(F)F)cc3)C(=O)[C@H]21 (racemic) [Compound I-38, Diethyl (1RS,3aSR,6aSR)-4,6-dioxo-1-phenyl-5-[4-(trifluoromethyl)phenyl]-1,3a,4,5,6,6a-hexahydropyrrolo[3,4-c]pyrrole-1-phosphonate]	CNS+ (compounds of high BBB permeation (CNS+): Pe (10^−6 cm s^−1)>5,179)	56 ± 1.5	–	–	–	–
CCOP(=O)(OCC)[C@]1(c2ccccc2)N=C[C@H]2C(=O)N(c3ccc(Cl)c(Cl)c3)C(=O)[C@H]21 (racemic) [Compound I-44, Diethyl (1RS,3aSR,6aSR)-5-(3,4-dichlorophenyl)-4,6-dioxo-1-phenyl-1,3a,4,5,6,6a-hexahydropyrrolo[3,4-c]pyrrole-1-phosphonate]	CNS+ (compounds of high BBB permeation (CNS+): Pe (10^−6 cm s^−1)>5,179)	89 ± 3	–	–	–	–
CCOP(=O)(OCC)[C@]1(c2ccccc2)N=C[C@H]2C(=O)N(c3ccc(C)cc3)C(=O)[C@H]21 (racemic) [Compound I-45, Diethyl (1RS,3aSR,6aSR)-4,6-dioxo-1-phenyl-5-(p-tolyl)-1,3a,4,5,6,6a-hexahydropyrrolo[3,4-c]pyrrole-1-phosphonate]	CNS+ (compounds of high BBB permeation (CNS+): Pe (10^−6 cm s^−1)>5,179)	87.5 ± 5	–	–	–	–
CCOP(=O)(OCC)[C@@]1(Cc2ccccc2)N=C[C@H]2C(=O)N(c3ccccc3)C(=O)[C@H]21 (racemic) [Compound I-46, Diethyl (1RS,3aSR,6aSR)-1-benzyl-4,6-dioxo-5-phenyl-1,3a,4,5,6,6a-hexahydropyrrolo[3,4-c]pyrrole-1-phosphonate]	CNS+ (compounds of high BBB permeation (CNS+): Pe (10^−6 cm s^−1)>5,179)	69 ± 3	–	–	–	–
CCOP(=O)(OCC)[C@]1(c2ccccc2)N=C[C@H]2C(=O)N(c3ccc(Cl)cc3)C(=O)[C@H]21 (racemic) [Compound I-49, Diethyl (1RS,3aSR,6aSR)-5-(4-chlorophenyl)-4,6-dioxo-1-phenyl-1,3a,4,5,6,6a-hexahydropyrrolo[3,4-c]pyrrole-1-phosphonate]	CNS+ (compounds of high BBB permeation (CNS+): Pe (10^−6 cm s^−1)>5,179)	55 ± 0.3	–	–	–	–
CCCN1C(=O)[C@@H]2[C@@H](C=N[C@@]2(c2ccccc2)P(=O)(OCC)OCC)C1=O (racemic) [Compound I-51, Diethyl (1RS,3aSR,6aSR)-4,6-dioxo-1-phenyl-5-propyl-1,3a,4,5,6,6a-hexahydropyrrolo[3,4-c]pyrrole-1-phosphonate]	CNS+ (compounds of high BBB permeation (CNS+): Pe (10^−6 cm s^−1)>5,179)	62 ± 3	–	–	–	–
CCOP(=O)(OCC)[C@]1(c2ccccc2)N=C[C@H]2C(=O)N(c3cccc(C(F)(F)F)c3)C(=O)[C@H]21 (racemic) [Compound I-52, Diethyl (1RS,3aSR,6aSR)-4,6-dioxo-1-phenyl-5-[3-(trifluoromethyl)phenyl]-1,3a,4,5,6,6a-hexahydropyrrolo[3,4-c]pyrrole-1-phosphonate]	CNS+ (compounds of high BBB permeation (CNS+): Pe (10^−6 cm s^−1)>5,179)	69 ± 2	–	–	–	–
CCOP(=O)(OCC)[C@]1(c2ccccc2)N=C[C@H]2C(=O)N(CC)C(=O)[C@H]21 (racemic) [Compound I-54, Diethyl (1RS,3aSR,6aSR)-5-ethyl-4,6-dioxo-1-phenyl-1,3a,4,5,6,6a-hexahydropyrrolo[3,4-c]pyrrole-1-phosphonate]	CNS+/− (compounds of uncertain BBB permeation (CNS+/−): 5,179>Pe (10^−6 cm s^−1)>2,083)	37 ± 5	–	–	–	–
CCOP(=O)(OCC)[C@]1(c2ccccc2)N=C[C@H]2C(=O)N(C(C)(C)C)C(=O)[C@H]21 (racemic) [Compound I-55, Diethyl (1RS,3aSR,6aSR)-5-(tert-butyl)-4,6-dioxo-1-phenyl-1,3a,4,5,6,6a-hexahydropyrrolo[3,4-c]pyrrole-1-phosphonate]	CNS+ (compounds of high BBB permeation (CNS+): Pe (10^−6 cm s^−1)>5,179)	63 ± 3	–	–	–	–
CCOP(=O)(OCC)[C@]1(c2ccccc2)N=C[C@H]2C(=O)N(c3cccc4ccccc34)C(=O)[C@H]21 (racemic) [Compound I-56, Diethyl (1RS,3aSR,6aSR)-5-(naphth-1-yl)-4,6-dioxo-1-phenyl-1,3a,4,5,6,6a-hexahydropyrrolo[3,4-c]pyrrole-1-phosphonate]	CNS− (compounds of low BBB permeation (CNS−): Pe (10^−6 cm s^−1)<2,083)	14 ± 0.6	–	–	–	–
CCOP(=O)(OCC)[C@@]1(Cc2ccccc2)N=C[C@H]2C(=O)N(C3CCCCC3)C(=O)[C@H]21 (racemic) [Compound I-57, Diethyl (1RS,3aSR,6aSR)-1-benzyl-5-cyclohexyl-4,6-dioxo-1,3a,4,5,6,6a-hexahydropyrrolo[3,4-c]pyrrole-1-phosphonate]	CNS+/− (compounds of uncertain BBB permeation (CNS+/−): 5,179>Pe (10^−6 cm s^−1)>2,083)	51 ± 0.1	–	–	–	–
c1ccc2c(c1)OCC(C1=NCCN1)O2 (stereo not drawn) [Idazoxan, reference compound]	–	–	7.27±0.07 and 7.41 ± 0.63	–	–	–
CCn1cc(C(=O)O)c(=O)c2cc(F)c(N3CCNCC3)cc21 [norfloxacine, reference compound]	–	–	–	–	–	0.90 ± 0.02 10−6 cm s^−1
